Experimental data taken from patent publication US5922723A, “Pharmaceutical compositions for prevention and treatment of central nervous system disorders” (priority 1996, dated 1999).
Structures can show the parent of a compound that is named as a salt.

Tests used:
[1] = biological target: CNS nicotinic receptors; test: Inhibition of L-[3H]nicotine binding to rat brain membrane preparations; set-up: species or system rat (Sprague-Dawley); conditions: for Ki: 10 nM L-[3H]nicotine, 2 hr at 4° C., rat brain membranes, calculated from IC50 (Cheng et al.); for binding to CNS nicotinic receptors (in words): summary of Table I
Description: Rats (Sprague-Dawley) were maintained on a 12 hour light/dark cycle and were allowed free access to water and food supplied by Wayne Lab Blox, Madison, Wis. Animals used in the present studies weighed 200 to 250 g. Brain membrane preparations were obtained from brain tissue of either males or females.
Rats were killed by decapitation following anesthesia with 70% CO2. Brains were removed and placed on an ice-cold platform. […] The resulting homogenate was centrifuged at 18,000× g for 20 min. and the resulting pellet was resuspended in 20 volumes of water. After 60 min. incubation at 4° C., a new pellet was collected by centrifugation at 18,000× g for 20 min. After resuspension in 10 volumes of buffer, a new final pellet was again collected by centrifugation at 18,000× g for 20 min. Prior to each centrifugation step, the suspension was incubated at 37° C. for 5 min. to promote hydrolysis of endogenous acetylcholine. The final pellet was overlayered with buffer and stored at -70° C. On the day of the assay, that pellet was thawed, resuspended in buffer and centrifuged at 18,000× g for 20 min. The pellet obtained was resuspended in buffer to a final concentration of approximately 5 mg protein/ml.
The binding of L-[^3 H]nicotine was measured using a 2 hr. incubation at 4° C. Incubations contained about 500 μg of protein and were conducted in 12 mm×75 mm polypropylene test tubes in a final incubation volume of 250 μl. The incubation buffer was Krebs-Ringers HEPES containing 200 mM TRIS buffer, pH 7.5. The binding reaction was terminated by filtration of the protein containing bound ligand onto glass fiber filters (Micro Filtration Systems) that had been soaked in buffer containing 0.5 percent polyethyleneimine. Filtration vacuum was -50 to -100 torr. Each filter was washed five times with 3 ml of ice-cold buffer. The filtration apparatus was cooled to 2° C. before use and was kept cold through the filtration process. Nonspecific binding was determined by inclusion of 10 uM nonradioactive nicotine in the incubations.
The inhibition of L-[^3 H]nicotine binding by test compounds was determined by including one of eight different concentrations of the test compound in the incubation.

[2] = test system: synaptosomes from the striatal area of rat brain (dopamine release); test: Dopamine release from synaptosomes of the striatal area of rat brain; type: biochemical, rat (Sprague-Dawley); conditions: for EC50: [3H]-dopamine; for dopamine release (in words): summary of Table I
Description: Striata from 4 rats were homogenized in 2 ml of 0.32 M sucrose buffered with 5 mM HEPES (pH 7.5), using a glass-Teflon tissue grinder. The homogenate was diluted to 5 ml with additional homogenization solution and centrifuged at 1,000× g for 10 min. This procedure was repeated on the new pellet and the resulting supernatant was centrifuged at 12,000× g for 20 min. A 3 layer discontinuous Percoll gradient consisting of 16 percent, 10 percent and 7.5 percent Percoll in HEPES-buffered sucrose was made with the final pellet dispersed in the top layer. […] The new pellet was collected and re-suspended in perfusion buffer. The synaptosome suspension was incubated for 10 min. at 37° C. [^3 H]-Dopamine (Amersham, 40-60 Ci/mmol) was added to the suspension to give a final concentration of 0.1 uM, and the suspension was incubated for another 5 min. […] A continuous perfusion system was used to monitor release following exposure to each ligand. Synaptosomes were loaded onto glass fiber filters (Gelman type A/E). Perfusion buffer was dripped onto the filters (0.2-0.3 ml/min.) and pulled through the filters with a peristaltic pump. Synaptosomes were washed with perfusion buffer for a minimum of 20 min. before addition of the ligand. After the addition of 0.2 ml of a solution containing various concentrations of ligand, the perfusate was collected into scintillation vials at 1 min. intervals and the dopamine released was quantified by scintillation counting. Peaks of radioactivity released above background were summed and the average basal release during that time was subtracted from the total.

[3] = biological target: T1, muscle-like nicotinic receptors (human clonal line TE671/RD) (Homo sapiens, UniProt P02708+P07510+Q07001); type: cell-based; conditions: for Muscle Effect: te671/rd cells; for effects at muscle sites (in words): summary of Table I
T1 construct: these cells express muscle-like nicotinic receptors; endogenous in cells; host or cells: TE671/RD (human embryonal rhabdomyosarcoma clonal line), intact cells
Description: Discussion concerning the heterogeneity of nicotinic receptors subtypes is set forth in Lukas et al., Internatl. […] Acetylcholine nicotinic receptors expressed in rat ganglia share a very high degree of homology with their human counterparts. See, Fornasari et al., Neurosci. […] Intact cells on dishes were used for functional studies.
Specific ion efflux was determined as the difference in isotope efflux between total and non-specific efflux samples.

[4] = biological target: T2, ganglionic-type neuronal nicotinic receptors (rat pheochromocytoma clonal line PC12) (Rattus norvegicus, UniProt P04757+P12392); type: cell-based; conditions: for Ganglion Effect: pc12 cells; for effects at ganglionic sites (in words): summary of Table I
T2 construct: tumor of the rat adrenal medulla expressing ganglionic-typeneuronal nicotinic receptors; endogenous in cells; host or cells: PC12 (rat pheochromocytoma clonal line), intact cells

[5] = rat striatal synaptosomes, % of release by equal concentration of (S)-(-)-nicotine

T1 sequence (P02708 21-457): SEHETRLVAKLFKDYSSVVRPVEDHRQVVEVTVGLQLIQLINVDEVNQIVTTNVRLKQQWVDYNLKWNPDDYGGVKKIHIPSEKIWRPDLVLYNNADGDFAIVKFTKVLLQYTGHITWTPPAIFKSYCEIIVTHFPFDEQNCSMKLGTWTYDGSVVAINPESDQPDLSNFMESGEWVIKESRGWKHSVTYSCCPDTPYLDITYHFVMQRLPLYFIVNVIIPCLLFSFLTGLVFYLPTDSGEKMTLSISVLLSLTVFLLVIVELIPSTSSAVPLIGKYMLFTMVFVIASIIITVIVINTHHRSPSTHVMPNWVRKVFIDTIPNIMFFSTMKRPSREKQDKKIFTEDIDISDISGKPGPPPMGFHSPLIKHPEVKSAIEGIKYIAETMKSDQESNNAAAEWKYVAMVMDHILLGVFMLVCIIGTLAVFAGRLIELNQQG
T1 sequence (Q07001 22-517): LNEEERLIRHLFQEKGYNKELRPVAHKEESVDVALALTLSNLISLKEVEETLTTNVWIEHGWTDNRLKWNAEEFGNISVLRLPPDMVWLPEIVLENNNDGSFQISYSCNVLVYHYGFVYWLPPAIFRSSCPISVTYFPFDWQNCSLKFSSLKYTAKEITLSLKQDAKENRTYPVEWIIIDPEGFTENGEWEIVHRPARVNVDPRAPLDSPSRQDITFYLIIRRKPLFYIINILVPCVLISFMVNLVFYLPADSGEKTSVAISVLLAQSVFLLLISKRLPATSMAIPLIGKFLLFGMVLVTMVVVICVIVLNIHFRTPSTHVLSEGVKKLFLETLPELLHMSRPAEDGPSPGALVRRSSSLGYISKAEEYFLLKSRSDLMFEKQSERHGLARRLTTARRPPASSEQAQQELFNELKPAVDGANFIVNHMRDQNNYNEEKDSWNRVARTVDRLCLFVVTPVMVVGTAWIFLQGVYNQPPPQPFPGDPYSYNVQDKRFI
T1 sequence (P07510 23-517): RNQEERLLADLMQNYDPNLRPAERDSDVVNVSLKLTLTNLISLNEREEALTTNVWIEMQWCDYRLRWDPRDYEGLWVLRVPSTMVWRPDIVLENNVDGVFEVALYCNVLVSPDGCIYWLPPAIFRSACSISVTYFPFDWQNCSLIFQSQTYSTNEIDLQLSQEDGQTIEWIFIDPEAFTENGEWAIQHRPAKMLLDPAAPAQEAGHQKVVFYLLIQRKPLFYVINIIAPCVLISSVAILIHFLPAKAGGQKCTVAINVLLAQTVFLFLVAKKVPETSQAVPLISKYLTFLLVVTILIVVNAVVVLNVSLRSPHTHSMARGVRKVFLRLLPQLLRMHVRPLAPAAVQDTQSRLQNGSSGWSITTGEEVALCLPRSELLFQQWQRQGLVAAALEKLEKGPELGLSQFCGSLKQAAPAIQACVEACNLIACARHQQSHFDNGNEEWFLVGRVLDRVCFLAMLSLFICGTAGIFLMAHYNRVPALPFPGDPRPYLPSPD
T2 sequence (P04757 26-499): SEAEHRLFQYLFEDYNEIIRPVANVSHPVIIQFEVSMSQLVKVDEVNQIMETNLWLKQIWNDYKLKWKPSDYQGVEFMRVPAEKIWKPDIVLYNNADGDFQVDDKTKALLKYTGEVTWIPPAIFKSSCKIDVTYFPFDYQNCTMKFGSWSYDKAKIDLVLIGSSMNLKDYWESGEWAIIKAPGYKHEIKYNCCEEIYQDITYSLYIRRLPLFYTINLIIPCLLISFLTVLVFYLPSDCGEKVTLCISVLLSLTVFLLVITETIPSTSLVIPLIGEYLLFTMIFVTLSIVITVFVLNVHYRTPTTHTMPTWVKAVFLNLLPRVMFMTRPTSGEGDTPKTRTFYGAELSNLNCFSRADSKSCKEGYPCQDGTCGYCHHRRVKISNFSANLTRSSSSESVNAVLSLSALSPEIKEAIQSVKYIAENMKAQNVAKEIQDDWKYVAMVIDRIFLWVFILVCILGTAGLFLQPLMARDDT
T2 sequence (P12392 21-495): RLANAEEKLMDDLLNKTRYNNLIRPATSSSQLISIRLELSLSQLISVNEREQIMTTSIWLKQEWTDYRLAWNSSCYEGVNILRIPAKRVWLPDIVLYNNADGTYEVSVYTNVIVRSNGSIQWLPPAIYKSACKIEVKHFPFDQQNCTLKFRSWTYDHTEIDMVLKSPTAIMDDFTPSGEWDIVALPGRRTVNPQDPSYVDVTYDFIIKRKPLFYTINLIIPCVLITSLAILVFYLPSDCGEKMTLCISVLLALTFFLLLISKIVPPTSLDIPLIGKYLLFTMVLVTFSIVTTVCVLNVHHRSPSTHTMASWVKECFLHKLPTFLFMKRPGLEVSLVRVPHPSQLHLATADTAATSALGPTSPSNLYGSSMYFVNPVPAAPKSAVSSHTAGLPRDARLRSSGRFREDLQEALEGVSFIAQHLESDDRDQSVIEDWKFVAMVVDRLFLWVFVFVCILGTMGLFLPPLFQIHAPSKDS

SMILES	Ki [1] [nM]	EC50 ([2]; rat striatal synaptosomes) [nM]	Dopamine Release Emax [2, 5] [% nicotine]	Muscle Effect [3]	Ganglion Effect [4]	binding to CNS nicotinic receptors (in words) [1]	effects at muscle sites (in words) [3]	effects at ganglionic sites (in words) [4]	dopamine release (in words) [2]	Dopamine Release Emax ([2]; Emax at 100 uM, % of release by (S)-(-)-nicotine) [% nicotine]
CN1[C@H](c2cccnc2)[C@@H]2C=C[C@H]1CC2 (relative stereo) [Sample No. 3, (+/-)-endo-2-methyl-3-(3-pyridyl)-2-azabicyclo[2.2.2]oct-5-ene fumarate]	6360	13000	9	0	0					
C1=C[C@H]2CC[C@@H]1[C@H](c1cccnc1)N2 (relative stereo) [Sample No. 2, (+/-)-exo-3-(3-pyridyl)-2-azabicyclo[2.2.2]oct-5-ene fumarate]	2	300	41	103	65	good high affinity binding to CNS nicotinic receptors				
CN1[C@H](c2cccnc2)[C@@H]2C=C[C@H]1C2 (relative stereo) [Sample No. 10, (+/-)-endo-2-methyl-3-(3-pyridyl)-2-azabicyclo[2.2.1]hept-5-ene]	3	86	44	25	18	good high affinity binding to CNS nicotinic receptors	desirably low effects at muscle sites	desirably low effects at muscle sites and ganglionic sites		
CN1CCC[C@H]1c1cccnc1 [Sample No. C-1, (S)-(-)-nicotine, reference compound]			100							
O=C(O)/C=C/C(=O)O.c1cncc(C2NC3CCC2CC3)c1 (racemic) [compound 5, (+/-)-3-(3-pyridyl)-2-azabicyclo[2.2.2]octane fumarate]	35	2550	4	9	3	good high affinity binding to CNS nicotinic receptors	desirably low effects at muscle sites	desirably low effects at muscle sites and ganglionic sites		
CN1[C@H](c2cncc(Br)c2)[C@@H]2C=C[C@H]1C2 (relative stereo) [Sample No. 12, (+/-)-endo-2-methyl-3-[3-(5-bromopyridyl)]-2-azabicyclo[2.2.1]hept-5-ene]	2100	1650	12	2	4					
CN1[C@H]2C=C[C@H](C2)[C@@H]1c1cccnc1 (relative stereo) [compound 11, (+/-)-exo-2-methyl-3-(3-pyridyl)-2-azabicyclo[2.2.1]hept-5-ene]	9	90	58	7	55	good high affinity binding to CNS nicotinic receptors				
CCN1[C@H](c2cccnc2)[C@@H]2C=C[C@H]1C2 (relative stereo) [Sample No. 7, (+/-)-endo-2-ethyl-3-(3-pyridyl)-2-azabicyclo[2.2.1]hept-5-ene]	7820	12900	22	18	2					
CN1[C@H]2C=C[C@H](CC2)[C@@H]1c1cccnc1 (relative stereo) [Sample No. 4, (+/-)-Exo-2-methyl-3-(3-pyridyl)-2-azabicyclo[2.2.2]oct-5-ene fumarate]	33	35000	17	8	8	good high affinity binding to CNS nicotinic receptors	desirably low effects at muscle sites	desirably low effects at muscle sites and ganglionic sites		
C1=C[C@H]2C[C@@H]1[C@@H](c1cccnc1)N2Cc1ccccc1 (relative stereo) [compound 9, (+/-)-endo-2-benzyl-3-(3-pyridyl)-2-azabicyclo[2.2.1]hept-5-ene]	141000	11000	30	7	11		desirably low effects at muscle sites	desirably low effects at muscle sites and ganglionic sites	induce dopamine release	
COc1ccc(CN2[C@H](c3cccnc3)[C@@H]3C=C[C@H]2C3)cc1 (relative stereo) [Sample No. 8, (+/-)-endo-2-(p-methoxybenzyl)-3-(3-pyridyl)-2-azabicyclo[2.2.1]hept-5-ene]	80800	> 100000					desirably low effects at muscle sites	desirably low effects at muscle sites and ganglionic sites	induce dopamine release	15
CN1C2CCC(CC2)C1c1cccnc1 (racemic) [Sample No. 6, (+/-)-2-methyl-3-(3-pyridyl)-2-azabiyclo[2.2.2]octane fumarate]	58	2000	10	30	21	good high affinity binding to CNS nicotinic receptors	desirably low effects at muscle sites	desirably low effects at muscle sites and ganglionic sites		
C1=C[C@H]2CC[C@@H]1[C@@H](c1cccnc1)N2 (relative stereo) [Sample No. 1, (+/-)-endo 3-(3-pyridyl)-2-azabicyclo[2.2.2]oct-5-ene fumarate]	476	550	14	69	12					
